# Data as given in patent US20140227201A1, “Antimicrobial Gel Formulations” (NovaBay Pharmaceuticals, Inc., priority 2013, published 2014).
# Assay: Amount of compound an AA-1 polymer formulation can hold
# Type: physicochemical
# Details: by weight
# Text: The formulations may be made by mixing the N-halogenated or N,N-dihalogenated amine compound with the polymer using water. Water/oil emulsions, hydrating agents, wetting agents, surfactants, and the like may also be used. Concentrations of N-halogenated or N,N-dihalogenated amine compound may range from about 0.01% to about 5.0% (by weight). Concentrations of polymer may be from about 0.01% to about 10% (by weight) in water. For example, in certain implementations, the concentration of N-halogenated or N,N-dihalogenated compounds may range from about 0.1% to about 2.0% (by weight). Higher concentrations of polymer may be required to formulate higher concentrations of the N-halogenated or N,N-dihalogenated amine compound. For example, a 1% AA-1 formulation can hold up to about 2% N,N-dichloro-2,2-dimethyltaurine, whereas a 2% AA-1 formulation can hold up to about 3.5% of the same compound. These ratios may differ as different polymers and N-halogenated or N,N-dihalogenated amine compound are combined in a given formulation.
smiles,measurement,setting,value
"CC(C)(CS(=O)(=O)O)N(Cl)Cl [NVC-422, N,N-dichloro-2,2-dimethyltaurine]",amount of compound the formulation can hold,1% AA-1 formulation,about 2%
same,amount of compound the formulation can hold,2% AA-1 formulation,about 3.5%
